Results published in patent US9994617B2, “Modulation of structured polypeptide specificity” (BICYCLE THERAPEUTICS LIMITED, priority 2011, dated 2018).
Numbered stars: 1 amine (or outer) side, 2 acyl side, 3 side chain; on linkers, the order of the positions; unused ones are H or OH. Bridge positions count the residues as written; N and C are the ends. Square brackets hold non-standard residues; d marks the D form. Peptide text beside a SMILES is read from it. Arg(Me2a) = CN(C)C(=N)NCCC[C@H](N)C(=O)O; Arg(Me2s) = CN=C(NC)NCCC[C@H](N)C(=O)O; TBMB = c1c(C[*:1])cc(C[*:3])cc1C[*:2]

Assays:
Human factor XIa (hfXIa) [1] = target: T1, Human factor XIa (hfXIa) (Homo sapiens, UniProt P03951); test: Inhibition of paralogous protease factor XIa; assay type: biochemical; details: highest concentration tested (100 μM)
T1 sequence (P03951 388-625 limits assumed): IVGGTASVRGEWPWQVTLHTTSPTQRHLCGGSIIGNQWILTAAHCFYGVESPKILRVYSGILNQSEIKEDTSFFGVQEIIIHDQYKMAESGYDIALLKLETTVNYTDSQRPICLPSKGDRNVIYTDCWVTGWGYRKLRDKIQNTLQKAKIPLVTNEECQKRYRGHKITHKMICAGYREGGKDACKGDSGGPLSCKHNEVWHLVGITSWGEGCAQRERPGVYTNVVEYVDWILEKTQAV
T1 sequence (P03951 19-387 partner limits assumed): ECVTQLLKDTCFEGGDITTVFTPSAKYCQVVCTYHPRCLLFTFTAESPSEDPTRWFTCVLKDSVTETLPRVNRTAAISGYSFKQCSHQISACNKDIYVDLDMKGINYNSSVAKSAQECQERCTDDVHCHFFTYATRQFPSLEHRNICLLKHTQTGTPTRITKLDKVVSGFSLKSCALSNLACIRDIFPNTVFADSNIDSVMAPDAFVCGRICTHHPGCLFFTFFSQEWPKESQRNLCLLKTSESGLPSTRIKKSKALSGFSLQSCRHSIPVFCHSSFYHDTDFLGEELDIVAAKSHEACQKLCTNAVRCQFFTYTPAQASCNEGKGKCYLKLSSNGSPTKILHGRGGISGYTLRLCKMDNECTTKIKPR
Protocol: (§1) The target specificity of the isolated bicyclic peptide inhibitors was assessed by determining the inhibition of trypsin-like human serine proteases of the class S1A which comprises 79 members (Yousef, et al, Biochem Biophys Res Commun 2003, 305 (1), 28-36). The panel of proteases included hfXIa which shares the highest sequence identity with hPK (69%) as well as the structurally less related but vital human serine proteases thrombin (36%), plasmin (34% sequence identity with hPK) and factor XIIa (35%).

Human thrombin = Human thrombin (Homo sapiens, UniProt P00734); test: Inhibition of paralogous protease thrombin; assay type: biochemical; details: for inhibition of thrombin: highest concentration tested (100 μM)
Protocol: as §1

Human plasmin = Human plasmin (Homo sapiens, UniProt P00747); test: Inhibition of paralogous protease plasmin; assay type: biochemical; details: highest concentration tested (100 μM)
Chain of Human plasmin (P00747 581-810 limits assumed): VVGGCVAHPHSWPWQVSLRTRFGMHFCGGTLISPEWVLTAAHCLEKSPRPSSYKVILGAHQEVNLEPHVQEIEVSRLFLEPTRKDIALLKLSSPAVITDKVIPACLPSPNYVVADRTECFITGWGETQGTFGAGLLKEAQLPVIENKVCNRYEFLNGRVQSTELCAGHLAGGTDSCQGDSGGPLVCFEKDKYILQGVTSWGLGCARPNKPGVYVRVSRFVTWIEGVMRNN
Chain of Human plasmin (P00747 97-580 partner limits assumed): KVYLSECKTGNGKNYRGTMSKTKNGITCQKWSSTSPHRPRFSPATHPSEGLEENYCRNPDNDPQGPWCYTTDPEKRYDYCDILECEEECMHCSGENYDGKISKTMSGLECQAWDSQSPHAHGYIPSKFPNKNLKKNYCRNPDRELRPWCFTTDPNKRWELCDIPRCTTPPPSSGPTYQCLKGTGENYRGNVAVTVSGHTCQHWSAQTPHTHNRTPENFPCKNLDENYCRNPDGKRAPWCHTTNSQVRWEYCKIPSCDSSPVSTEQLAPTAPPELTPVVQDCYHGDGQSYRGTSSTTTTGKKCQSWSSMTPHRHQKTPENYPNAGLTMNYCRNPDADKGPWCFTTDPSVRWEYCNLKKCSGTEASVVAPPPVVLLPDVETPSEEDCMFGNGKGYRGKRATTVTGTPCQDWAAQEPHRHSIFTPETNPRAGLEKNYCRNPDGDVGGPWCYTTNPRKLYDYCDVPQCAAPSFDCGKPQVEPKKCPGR
Protocol: as §1

[2] = target: T2, Human factor XIIa (hfXIIa) (Homo sapiens, UniProt P00748); test: Inhibition of paralogous protease factor XIIa; assay type: biochemical; details: for inhibition of factor XIIa: highest concentration tested (100 μM)
T2 sequence (P00748 373-615 limits assumed): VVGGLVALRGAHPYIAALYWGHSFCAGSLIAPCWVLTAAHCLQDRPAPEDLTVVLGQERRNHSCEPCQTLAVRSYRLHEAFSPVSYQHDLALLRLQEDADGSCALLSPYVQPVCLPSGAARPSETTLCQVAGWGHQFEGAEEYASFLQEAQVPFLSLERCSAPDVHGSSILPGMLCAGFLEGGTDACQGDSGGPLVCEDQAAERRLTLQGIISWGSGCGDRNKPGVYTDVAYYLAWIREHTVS
Protocol: as §1

[3] = target: rat plasma kallikrein (rPK) (Rattus norvegicus, UniProt P14272); test: Enzyme inhibition assay, rat plasma kallikrein
Chain of rat plasma kallikrein (rPK) (P14272 391-638 limits assumed): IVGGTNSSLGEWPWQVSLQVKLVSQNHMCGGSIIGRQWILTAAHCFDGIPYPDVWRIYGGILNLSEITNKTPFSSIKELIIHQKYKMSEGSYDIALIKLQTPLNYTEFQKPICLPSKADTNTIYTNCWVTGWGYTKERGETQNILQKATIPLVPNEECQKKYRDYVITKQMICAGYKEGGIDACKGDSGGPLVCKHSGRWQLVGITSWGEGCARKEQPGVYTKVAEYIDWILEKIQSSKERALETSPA

[4] = target: human plasma kallikrein (hPK) (Homo sapiens, UniProt P03952); test: Enzyme inhibition assay, human plasma kallikrein
Human factor XIa (hfXIa) [5] = target: T1, Human factor XIa (hfXIa); details: highest concentration tested (10 μM), Heinis et al. 2009; cited from earlier work
[6] = target: monkey plasma kallikrein (mPK) (Macaca mulatta, UniProt A0A1D5Q7U7); test: Inhibition of monkey plasma kallikrein
Chain of monkey plasma kallikrein (mPK) (A0A1D5Q7U7 391-638): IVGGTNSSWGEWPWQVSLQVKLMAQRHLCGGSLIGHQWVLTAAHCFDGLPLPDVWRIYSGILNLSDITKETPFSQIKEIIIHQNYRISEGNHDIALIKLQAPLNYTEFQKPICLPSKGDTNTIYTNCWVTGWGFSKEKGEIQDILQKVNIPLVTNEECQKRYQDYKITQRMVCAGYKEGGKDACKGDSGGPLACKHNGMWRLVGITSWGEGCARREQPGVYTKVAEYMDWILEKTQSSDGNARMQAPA

[7] = Rapid plasma stability profiling, method 1 (MALDI-TOF), rat plasma; assay type: in vitro ADME; details: 35% rat plasma, 37 deg C, method 1, qualitative; listed as N-methylation of Arg5
Protocol: A rapid plasma stability profiling assay was developed that employed mass spectrometric detection (MALDI-TOF, Voyager DE, Applied Biosystems) of the parent mass, until the time when the parent peptide mass was no longer observable. Specifically, 200 uM of peptide was incubated in the presence of 35% rat or human plasma (Sera labs, using citrate as anticoagulant) at 37 deg C, which was supplemented with 1×PBS (derived from a 10×PBS Stock, Sigma). At various time points (i.e. t=0, 3, 24 hrs, henceafter daily up to 10 days), 2 uL of sample was added to 18 uL of 30 mM ammonium bicarbonate in a 1:1 mixture of acetonitrile:H2O. Samples were frozen at −80 deg C until the time of analysis. For mass spectrometric analysis that determines the approximate detection window of the peptide, the acetonitrile:H2O-diluted sample of a given time point was spotted directly (0.7 uL) onto the MALDI plate. Matrix (alpha-cyanocinnamic acid, Sigma, prepared as a saturated solution in 1:1 acetonitrile:water containing 0.1% trifluoroacetic acid) was layered over the sample (1 uL). At a similar laser intensity setting on the MALDI TOF, the time could then be determined until parent peptide was no longer detectable. It should be noted that this is a qualitative assay serves to detect relative changes in plasma stability.

[8] = Quantitative plasma stability, method 3 (LC/MS), rat plasma; assay type: in vitro ADME; details: determined quantitatively by LC/MS, read-out: rat plasma halflife (converted)
Protocol: To obtain plasma stability quantitatively, peptide stock solutions (1 mM in DMSO) were shipped to Biofocus, UK, who performed the analysis. Peptides were diluted to 100 uM with water, and diluted 1:20 in plasma (5 uM final concentration, with the plasma at 95%), sampled as appropriate, precipitated as above, and quantified using a Waters Xevo TQ-MS.

[9] = target: T3, Human plasma kallikrein (hPK) (human, UniProt P03952 20-638, limits assumed); test: enzyme inhibition assay (fluorogenic substrate)
T3 construct: also called human PK; human kallikrein
T3 sequence (P03952 20-638 limits assumed): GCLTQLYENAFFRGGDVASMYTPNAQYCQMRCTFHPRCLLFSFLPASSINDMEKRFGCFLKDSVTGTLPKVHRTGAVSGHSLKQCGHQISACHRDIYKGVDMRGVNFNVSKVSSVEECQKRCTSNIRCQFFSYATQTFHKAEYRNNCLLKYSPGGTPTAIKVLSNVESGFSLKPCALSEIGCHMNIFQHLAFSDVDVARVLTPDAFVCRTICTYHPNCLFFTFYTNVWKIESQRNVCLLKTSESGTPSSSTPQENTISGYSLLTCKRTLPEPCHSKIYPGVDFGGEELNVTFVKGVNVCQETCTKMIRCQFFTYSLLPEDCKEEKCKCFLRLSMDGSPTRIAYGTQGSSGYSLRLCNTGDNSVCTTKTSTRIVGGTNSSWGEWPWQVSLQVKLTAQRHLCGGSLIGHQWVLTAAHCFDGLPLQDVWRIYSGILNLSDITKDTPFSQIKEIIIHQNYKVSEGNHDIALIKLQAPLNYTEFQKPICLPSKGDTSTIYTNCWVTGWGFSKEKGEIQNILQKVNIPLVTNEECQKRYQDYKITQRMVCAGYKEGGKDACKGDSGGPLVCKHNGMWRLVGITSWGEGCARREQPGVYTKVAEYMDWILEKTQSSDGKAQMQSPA

[10] = target: T3, Human plasma kallikrein (hPK); test: enzyme inhibition assay (fluorogenic substrate); remark: listed apart in the source

In the case of `C[C@H](N)C(=O)N[C@H]1CSCc2cc3cc(c2)CSC[C@H](NC(=O)[C@H](CCCNC(=N)N)NC(=O)[C@H](C)NC(=O)[C@@H]2CCCN2C(=O)[C@H](Cc2c[nH]c4ccccc24)NC(=O)[C@H](CCCNC(=N)N)NC1=O)C(=O)N[C@@H]([C@@H](C)O)C(=O)N[C@@H](Cc1c[nH]cn1)C(=O)N[C@@H](CCC(N)=O)C(=O)N[C@@H](CC(N)=O)C(=O)N[C@@H](Cc1ccc(O)cc1)C(=O)N[C@H](C(=O)N[C@@H](C)C(N)=O)CSC3` [Peptide 06-54] (H-ACRWPARCTHQNYCA-NH2; linker 2-8-14 via TBMB), the “inhibition of hfXIa” value (Human factor XIa (hfXIa) [1]) is reported as “did not inhibit”, the IC50 (Human thrombin) is reported as over 10000 nM and the inhibition of thrombin (Human thrombin) is reported as “did not inhibit”. For the same molecule, the inhibition of plasmin (Human plasmin) was “did not inhibit”, the IC50 [2] was over 10000 nM and the “inhibition of factor XIIa” value [2] was “did not inhibit”. The Ki [3] was 7 nM and the Ki [4] was 0.49 nM.

For `CC(C)C[C@@H]1NC(=O)[C@H](C)NC(=O)[C@H](CCC(=O)O)NC(=O)[C@H](CC(=O)O)NC(=O)[C@H](C)NC(=O)[C@@H]2CCCN2C(=O)[C@@H]2CSCc3cc(cc(c3)CSC[C@@H](C(=O)NCC(N)=O)NC1=O)CSC[C@H](NC(=O)[C@H](C)N)C(=O)N[C@@H](CO)C(=O)N[C@@H](CC(=O)O)C(=O)N[C@@H](CCCNC(=N)N)C(=O)N[C@@H](Cc1ccccc1)C(=O)N[C@@H](CCCNC(=N)N)C(=O)N[C@@H](CC(N)=O)C(=O)N2` [PK15] (H-ACSDRFRNCPADEALCG-NH2; linker 2-9-16 via TBMB), the “inhibition of factor XIa (hfXIa)” value (Human factor XIa (hfXIa) [5]) is listed as “did not inhibit” and the Ki [6] is listed as 2.9 nM.

In the case of `CC(=O)N[C@H]1CSCc2cc3cc(c2)CSC[C@H](NC(=O)[C@H](CCCNC(=N)N)N(C)C(=O)[C@H](C)NC(=O)[C@@H]2CCCN2C(=O)[C@H](Cc2c[nH]c4ccccc24)NC(=O)[C@H](CO)NC1=O)C(=O)N[C@@H](CC(C)C)C(=O)N[C@@H](Cc1c[nH]cn1)C(=O)N[C@@H](CCC(N)=O)C(=O)N[C@@H](CC(=O)O)C(=O)N[C@@H](CC(C)C)C(=O)N[C@H](C(N)=O)CSC3` [Ac-(06-34-18) NMeArg5], the “Observable in rat plasma, for days” value [7] is reported as “exceeds the assay time”, the Ki [4] is reported as 3.5 nM and the “fold reduction in affinity to kallikrein compared to wildtype peptide” value ([4]; versus Ac-06-34-18(TMB)-NH2) is reported as 20 fold.

For `CC(C)C[C@@H]1NC(=O)[C@H](CC(N)=O)NC(=O)[C@H](CCC(N)=O)NC(=O)[C@H](Cc2c[nH]cn2)NC(=O)[C@H](CC(C)C)NC(=O)[C@@H]2CSCc3cc(cc(c3)CSC[C@@H](C(=O)N[C@@H](C)C(N)=O)NC1=O)CSC[C@H](NC(=O)[C@H](C)N)C(=O)N[C@@H]([C@@H](C)O)C(=O)N[C@@H](Cc1ccc(O)cc1)C(=O)N1CCC[C@H]1C(=O)N[C@@H](Cc1ccc(O)cc1)C(=O)N[C@@H](CCCCN)C(=O)N2` [Peptide 2A10] (H-ACTYPYKCLHQNLCA-NH2; linker 2-8-14 via TBMB), the “inhibition of hfXIa” value (Human factor XIa (hfXIa) [1]) was “did not inhibit”, the inhibition of thrombin (Human thrombin) was “did not inhibit” and the “inhibition of factor XIIa” value [2] was “did not inhibit”. The Ki [4] was 4.98 nM.

`CC(=O)N[C@H]1CSCc2cc3cc(c2)CSC[C@H](NC(=O)[C@H](CCCNC(=N)N)NC(=O)[C@H](C)NC(=O)[C@@H]2CCCN2C(=O)[C@H](Cc2c[nH]c4ccccc24)NC(=O)[C@H](CO)NC1=O)C(=O)N[C@@H](CC(C)C)C(=O)N[C@@H](Cc1c[nH]cn1)C(=O)N[C@@H](CCC(N)=O)C(=O)N[C@@H](CC(=O)O)C(=O)N[C@@H](CC(C)C)C(=O)N[C@H](C(N)=O)CSC3` [Ac-(06-34-18) wildtype] showed a half-life at 5 uM [8] of about 2 h, an IC50 [3] of 1.7 nM and a Ki [4] of 0.17 nM.

Molecule `CC(C)C[C@@H]1NC(=O)[C@H](CC(=O)O)NC(=O)[C@H](CCC(N)=O)NC(=O)[C@H](Cc2c[nH]cn2)NC(=O)[C@H](CC(N)=O)NC(=O)[C@@H]2CSCc3cc(cc(c3)CSC[C@@H](C(=O)N[C@@H](C)C(N)=O)NC1=O)CSC[C@H](NC(=O)[C@H](C)N)C(=O)N[C@@H](CO)C(=O)N[C@@H](Cc1c[nH]c3ccccc13)C(=O)N1CCC[C@H]1C(=O)N[C@@H](C)C(=O)N[C@@H](CCCNC(=N)N)C(=O)N2` [Peptide 06-57] (H-ACSWPARCNHQDLCA-NH2; linker 2-8-14 via TBMB) has an IC50 (Human thrombin) of over 10000 nM, an IC50 [2] of over 10000 nM and a Ki [4] of 0.4 nM.

B1: Ac-(06-34-18) NDMA5 (peptide)
peptide: Ac-CSWPA[Arg(Me2a)]CLHQDLC-NH2
modifications: linker 1-7-13 via TBMB
SMILES: CC(=O)N[C@H]1CSCc2cc3cc(c2)CSC[C@H](NC(=O)[C@H](CCCNC(=N)N(C)C)NC(=O)[C@H](C)NC(=O)[C@@H]2CCCN2C(=O)[C@H](Cc2c[nH]c4ccccc24)NC(=O)[C@H](CO)NC1=O)C(=O)N[C@@H](CC(C)C)C(=O)N[C@@H](Cc1c[nH]cn1)C(=O)N[C@@H](CCC(N)=O)C(=O)N[C@@H](CC(=O)O)C(=O)N[C@@H](CC(C)C)C(=O)N[C@H](C(N)=O)CSC3
B1 gave a Ki [9] of 510 nM.

B2: Ac-(06-34-18) D-Trp2 (peptide)
peptide: Ac-CS[dW]PARCLHQDLC-NH2
modifications: linker 1-7-13 via TBMB
SMILES: CC(=O)N[C@H]1CSCc2cc3cc(c2)CSC[C@H](NC(=O)[C@H](CCCNC(=N)N)NC(=O)[C@H](C)NC(=O)[C@@H]2CCCN2C(=O)[C@@H](Cc2c[nH]c4ccccc24)NC(=O)[C@H](CO)NC1=O)C(=O)N[C@@H](CC(C)C)C(=O)N[C@@H](Cc1c[nH]cn1)C(=O)N[C@@H](CCC(N)=O)C(=O)N[C@@H](CC(=O)O)C(=O)N[C@@H](CC(C)C)C(=O)N[C@H](C(N)=O)CSC3
With B2 the “fold loss in potency against Ac-06-34-18 wildtype” value [10] was 45000 fold.

B3: Ac-(06-34-18) D-Ala4 (peptide)
peptide: Ac-CSWP[dA]RCLHQDLC-NH2
modifications: linker 1-7-13 via TBMB
SMILES: CC(=O)N[C@H]1CSCc2cc3cc(c2)CSC[C@H](NC(=O)[C@H](CCCNC(=N)N)NC(=O)[C@@H](C)NC(=O)[C@@H]2CCCN2C(=O)[C@H](Cc2c[nH]c4ccccc24)NC(=O)[C@H](CO)NC1=O)C(=O)N[C@@H](CC(C)C)C(=O)N[C@@H](Cc1c[nH]cn1)C(=O)N[C@@H](CCC(N)=O)C(=O)N[C@@H](CC(=O)O)C(=O)N[C@@H](CC(C)C)C(=O)N[C@H](C(N)=O)CSC3
For B3, the “fold reduction of affinity against Ac-06-34-18 wildtype” value [10] was 7000 fold.

B4: Ac-(06-34-18) SDMA5 (peptide)
peptide: Ac-CSWPA[Arg(Me2s)]CLHQDLC-NH2
modifications: linker 1-7-13 via TBMB
SMILES: CN=C(NC)NCCC[C@@H]1NC(=O)[C@H](C)NC(=O)[C@@H]2CCCN2C(=O)[C@H](Cc2c[nH]c3ccccc23)NC(=O)[C@H](CO)NC(=O)[C@@H](NC(C)=O)CSCc2cc3cc(c2)CSC[C@H](NC1=O)C(=O)N[C@@H](CC(C)C)C(=O)N[C@@H](Cc1c[nH]cn1)C(=O)N[C@@H](CCC(N)=O)C(=O)N[C@@H](CC(=O)O)C(=O)N[C@@H](CC(C)C)C(=O)N[C@H](C(N)=O)CSC3
B4 showed a Ki [9] of 1420 nM.
